# Key:
# HeLa cells [1] = test: Effect of autophagy inhibitor 3-MA on cell death induced by Compound 1, WST-8 assay; format: cell-based, human
# Experimental: 3-Methyladenine (3-MA) is a class III PI3K inhibitor and is also an autophagy inhibitor. 3-MA was added to HeLa cells for one hour, and three days later, a WST-8 assay was performed to confirm the number of the cells.
# Thus, it was confirmed that cell death induced by Compound 1 in cancer cells was autophagic.
# NIH/3T3 cells [2] = test: Inhibition of cell death caused by serum starvation, WST-8 assay; format: cell-based, mouse; details: serum-free
# Experimental: NIH/3T3 cells were cultured under serum-containing or serum-free conditions, and after a predetermined period of time, a WST-8 assay was performed to confirm the cell number (N=6).
# FIG. 2 is a graph comparing the viable cell numbers in the serum-starved condition in the presence and absence of Compound 1.
# [3] = tested on: Mouse spinal cord macrophages; test: Inhibition of cell death in primary culture, WST-8 assay; format: cell-based; details: serum-containing or serum-free
# Experimental: Mouse spinal cord macrophages were cultured under serum-containing or serum-free conditions, and after a predetermined period of time, a WST-8 assay was performed to confirm the cell number (N=6).
# SH-SY5Y cells = test: Induction of cell death in cancer cells; format: cell-based; details: human neuroblast
# [4] = tested on: liver warm ischemia reperfusion injury; test: Rat liver warm ischemia reperfusion injury model; format: in vivo; details: LEW rats, 0.3 mg/kg before ischemia
# Experimental: An experiment was performed with a rat liver warm ischemia reperfusion model, in which LEW rats of eight to nine weeks of age were subjected to laparotomy under general anesthesia by endotracheal intubation, and after 20 minutes of warm ischemia applied by blocking the hepatic portal region, the blocking was released and reperfusion was carried out. With respect to positive subjects, using AICAR (aminoimidazole-4-carboxamide rebonucleoside), which is an AMPK activator, a solvent, Compound 1 (0.3 mg/kg), and AICAR (100 mg/kg) were administered, respectively, before ischemia, and aspartate aminotransferase (AST) and alanine aminotransferase (ALT), which are liver deviation enzymes, in peripheral blood were measured six hours after the reperfusion (N=3).
# AMPKα = test: Enhancement of phosphorylation of AMPK, Western blotting in NIH/3T3 cells; format: cell-based, mouse
# Experimental: (§1) Compound 1 was added to mouse fibroblast NIH/3T3 cells under serum-free conditions, the cells were harvested over a period of time to prepare a disrupted cell suspension, and phosphorylated AMPKα, total AMPKα, phosphorylated ACC, and total ACC were detected by Western blotting. ACC denotes acetyl-CoA carboxylase.
# NIH/3T3 cells [5] = test: Inhibition of cell death after storage at 4° C. and rewarming to 37° C.; format: cell-based, mouse; details: cells stored at 4° C. for 24 hours and then rewarmed to 37° C.
# mouse fibroblast MEF = test: Inhibition of TNF-α induced apoptosis; format: cell-based
# HeLa cells [6] = test: Induction of cell death in cancer cells, WST-8 assay; format: cell-based; details: human cervical cancer
# Jurkat cells = test: as above; format: cell-based; details: human T-cell leukemia
# [7] = tested on: ACC (acetyl-CoA carboxylase); test: Enhancement of phosphorylation of ACC, Western blotting in NIH/3T3 cells; format: cell-based, mouse
# Experimental: as §1
# LC3-II = test: Autophagy marker LC3-II in cancer cells, Western blotting; format: cell-based, human; details: HeLa cells, in the presence of 4 mM of BafA, cultured for 21 hours
# Experimental: Bafilomycin A1 (BafA) is an autophagy inhibitor. BafA was added to HeLa cells for one hour and then Compound 1 was added thereto. After this was cultured for 21 hours, the cells were harvested to prepare a disrupted cell suspension, and the amount of LC3-II was confirmed by Western blotting. LC3-II is an autophagy marker.
# [8] = 16 hours after the addition (data not shown)
# [9] = NIH/3T3 cells, serum-free, within 10 minutes after the addition
smiles,measurement,setting,value
"O=S(=O)(Nc1cc(C(F)(F)F)ccc1N1CC[C@@H]2CCCC[C@H]2C1)c1ccc(F)cc1 [Compound 1, 4-fluoro-N-(2-((4aS,8aR)-octahydroisoquinolin-2(1H)-yl)-5-(trifluoromethyl)phenyl)benzenesulfonamide]",type of cell death induced in cancer cells,"HeLa cells [1]; HeLa cells, with 3-MA, three days",autophagic
same,cell death caused by serum starvation (viable cell number),NIH/3T3 cells [2],significantly inhibited cell death
same,cell death in primary culture (viable cell number),[3],significantly inhibited cell death
same,cell death in cancer cells,SH-SY5Y cells,able to induce cell death
same,hepatic injury,[4],alleviate hepatic injury
same,"elevation of liver deviation enzymes (AST, ALT) in peripheral blood","[4]; 20 minutes warm ischemia, six hours after the reperfusion",inhibited the elevation of liver deviation enzymes
same,phosphorylation of AMPK,AMPKα; [8],maintained
same,phosphorylation of AMPK,AMPKα; [9],enhanced
same,cell death after cold storage and rewarming,NIH/3T3 cells [5],cell death inhibitory effect was observed
same,TNF-α induced apoptosis (proinflammatory cell death),mouse fibroblast MEF,cell death inhibitory effect was observed
same,cell death in cancer cells,HeLa cells [6],able to induce cell death
same,cell death in cancer cells,Jurkat cells,able to induce cell death
same,phosphorylation of ACC,[7]; [8],maintained
same,phosphorylation of ACC,[7]; [9],enhanced
same,amount of LC3-II,LC3-II,considerably increased
"O=S(=O)(Nc1cc(C(F)(F)F)ccc1N1CC[C@@H]2CCCC[C@H]2C1)c1ccccc1 [Compound 2, N-(2-((4aS,8aR)-octahydroisoquinolin-2(1H)-yl)-5-(trifluoromethyl)phenyl)benzenesulfonamide]",cell death caused by serum starvation (viable cell number),NIH/3T3 cells [2],cell death inhibitory effect equivalent to that of Compound 1
"Cc1ccc(S(=O)(=O)Nc2cc(C(F)(F)F)ccc2N2CC[C@@H]3CCCC[C@H]3C2)cc1 [Compound 3, N-(2-((4aS,8aR)-octahydroisoquinolin-2(1H)-yl)-5-(trifluoromethyl)phenyl)-4-toluenesulfonamide]",cell death caused by serum starvation (viable cell number),NIH/3T3 cells [2],cell death inhibitory effect equivalent to that of Compound 1
"Cn1cnc(N)c2ncnc1-2 [Compound 3-MA, 3-Methyladenine, reference compound]",survival rate of the cells,"HeLa cells [1]; HeLa cells with cell death induced by Compound 1, depending on the amount of 3-MA added",improved
"O=S(=O)(Nc1cc(C(F)(F)F)ccc1N1CC[C@@H]2CCCC[C@H]2C1)c1ccc(Br)cc1 [Compound 4, 4-bromo-N-(2-((4aS,8aR)-octahydroisoquinolin-2(1H)-yl)-5-(trifluoromethyl)phenyl)benzenesulfonamide]",cell death caused by serum starvation (viable cell number),NIH/3T3 cells [2],cell death inhibitory effect equivalent to that of Compound 1
"O=S(=O)(Nc1cc(C(F)(F)F)ccc1N1CC[C@@H]2CCCC[C@H]2C1)c1ccc2ccccc2c1 [Compound 6, N-(2-((4aS,8aR)-octahydroisoquinolin-2(1H)-yl)-5-(trifluoromethyl)phenyl)-2-naphthalenesulfonamide]",cell death caused by serum starvation (viable cell number),NIH/3T3 cells [2],cell death inhibitory effect equivalent to that of Compound 1
